Counter-ions that a name gives are not always drawn.
Target: SHP2 (Homo sapiens (Human), UniProt Q06124)
Experiment: SHP2 Allosteric Inhibition Assay (DiFMUP prompt fluorescence)
Format: biochemical
Conditions: 0.25 nM SHP2 activated with 0.5 μM peptide IRS1_pY1172(dPEG8)pY1222; substrate DiFMUP 100 μM; 25° C.

SHP2, sequence (Q06124 whole entry): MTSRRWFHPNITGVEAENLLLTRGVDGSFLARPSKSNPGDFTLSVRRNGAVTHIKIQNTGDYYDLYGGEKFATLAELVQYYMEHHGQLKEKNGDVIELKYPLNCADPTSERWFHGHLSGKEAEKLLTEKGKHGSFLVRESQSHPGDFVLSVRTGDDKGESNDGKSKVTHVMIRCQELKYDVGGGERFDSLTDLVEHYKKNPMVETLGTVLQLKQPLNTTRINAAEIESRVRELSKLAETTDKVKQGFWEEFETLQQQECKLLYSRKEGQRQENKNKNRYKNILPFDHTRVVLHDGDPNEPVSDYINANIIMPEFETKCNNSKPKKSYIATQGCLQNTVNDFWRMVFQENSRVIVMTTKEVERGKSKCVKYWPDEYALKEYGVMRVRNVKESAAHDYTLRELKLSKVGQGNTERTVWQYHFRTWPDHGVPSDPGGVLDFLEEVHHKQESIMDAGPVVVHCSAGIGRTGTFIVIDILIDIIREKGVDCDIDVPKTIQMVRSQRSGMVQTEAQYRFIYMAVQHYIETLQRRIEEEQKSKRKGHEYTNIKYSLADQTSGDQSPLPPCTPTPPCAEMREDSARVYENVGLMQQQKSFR

SMILES | IC50
C[C@@H]1OCC2(CCN(c3cnc4c(N5CCCc6nc(-c7cnoc7)ccc65)n[nH]c4n3)CC2)[C@@H]1N [Compound 380, (3S,4S)-3-methyl-8-{3-[6-(1,2-oxazol-4-yl)-1,2,3,4-tetrahydro-1,5-naphthyridin-1-yl]-1H-pyrazolo[3,4-b]pyrazin-6-yl}-2-oxa-8-azaspiro[4.5]decan-4-amine] | < 1 µM
C[C@@H]1OCC2(CCN(c3cnc4c(N5CCCc6nc(-n7cccn7)ccc65)n[nH]c4n3)CC2)[C@@H]1N [Compound 252] | < 1 µM
C[C@@H]1OCC2(CCN(c3cnc4c(N5CCCc6nc(-c7ccnn7C)ccc65)n[nH]c4n3)CC2)[C@@H]1N [Compound 255, (3S,4S)-3-methyl-8-{3-[6-(1-methyl-1H-pyrazol-5-yl)-1,2,3,4-tetrahydro-1,5-naphthyridin-1-yl]-1H-pyrazolo[3,4-b]pyrazin-6-yl}-2-oxa-8-azaspiro[4.5]decan-4-amine hydrochloride] | < 1 µM
C[C@@H]1OCC2(CCN(c3cnc4c(Oc5ccnc(Cl)c5Cl)n[nH]c4n3)CC2)[C@@H]1N [Compound 512, (3S,4S)-8-(3-((2,3-dichloropyridin-4-yl)oxy)-1H-pyrazolo[3,4-b]pyrazin-6-yl)-3-methyl-2-oxa-8-azaspiro[4.5]decan-4-amine] | < 1 µM
CC1(CN)CCN(c2cnc3c(N4CCCc5cc(C#N)ccc54)n[nH]c3n2)CC1 [Compound 77] | < 1 µM
NCC1(CO)CCN(c2cnc3c(N4CCCc5ncccc54)n[nH]c3n2)CC1 [Compound 82, (4-(aminomethyl)-1-(3-(3,4-dihydro-1,5-naphthyridin-1(2H)-yl)-1H-pyrazolo[3,4-b]pyrazin-6-yl)piperidin-4-yl)methanol dihydrochloride] | < 1 µM
COC(=O)NCC1(C)CCN(c2cnc3c(N4CCCc5cc(C#N)ccc54)n[nH]c3n2)CC1 [Compound 174, methyl ((1-(3-(6-cyano-3,4-dihydroquinolin-1(2H)-yl)-1H-pyrazolo[3,4-b]pyrazin-6-yl)-4-methylpiperidin-4-yl)methyl)carbamate] | ≥ 10 µM
CC1(CN)CCN(c2cnc3c(N4CCN(C(=O)CO)c5ccccc54)n[nH]c3n2)CC1 [Compound 194, 1-(4-(6-(4-(aminomethyl)-4-methylpiperidin-1-yl)-1H-pyrazolo[3,4-b]pyrazin-3-yl)-3,4-dihydroquinoxalin-1(2H)-yl)-2-hydroxyethan-1-one] | < 1 µM
N[C@@H]1COCC12CCN(c1cnc3c(Sc4cccnc4C(F)(F)F)n[nH]c3n1)CC2 [Compound 483, (S)-8-(3-((2-(trifluoromethyl)pyridin-3-yl)thio)-1H-pyrazolo[3,4-b]pyrazin-6-yl)-2-oxa-8-azaspiro[4.5]decan-4-amine] | < 1 µM
C[C@@H]1OCC2(CCN(c3cnc4c(N5CCN(C)c6cnccc65)n[nH]c4n3)CC2)[C@@H]1N [Compound 276] | < 1 µM
C[C@@H]1OCC2(CCN(c3cnc4c(N5CCCc6c(CC#N)cccc65)n[nH]c4n3)CC2)[C@@H]1N [Compound 441] | < 1 µM
C[C@@H]1OCC2(CCN(c3cnc4c(N5CCCc6nc(-c7cnn(C)c7)ccc65)n[nH]c4n3)CC2)[C@@H]1N [Compound 224, (3S,4S)-3-methyl-8-(3-(6-(1-methyl-1H-pyrazol-4-yl)-3,4-dihydro-1,5-naphthyridin-1(2H)-yl)-1H-pyrazolo[3,4-b]pyrazin-6-yl)-2-oxa-8-azaspiro[4.5]decan-4-amine] | < 1 µM
NCC1(N)CCN(c2cnc3c(N4CCCc5ncccc54)n[nH]c3n2)CC1 [Compound 179] | < 1 µM
C[C@@H]1OCC2(CCN(c3cnc4c(N5CCCc6c(-c7cnn(C)c7)cccc65)n[nH]c4n3)CC2)[C@@H]1N [Compound 209] | < 1 µM
CNC(=O)c1ccc2c(n1)CCCN2c1n[nH]c2nc(N3CCC4(CC3)CO[C@@H](C)[C@H]4N)cnc12 [Compound 282, 5-(6-((3S,4S)-4-amino-3-methyl-2-oxa-8-azaspiro[4.5]decan-8-yl)-1H-pyrazolo[3,4-b]pyrazin-3-yl)-N-methyl-5,6,7,8-tetrahydro-1,5-naphthyridine-2-carboxamide] | < 1 µM
C[C@@H]1OCC2(CCN(c3cnc4c(N5CCCc6c(C7CCOCC7)cccc65)n[nH]c4n3)CC2)[C@@H]1N [Compound 251] | < 1 µM
C[C@@H]1OCC2(CCN(c3cnc4c(N5CCCc6c5ccn(C)c6=O)n[nH]c4n3)CC2)[C@@H]1N [Compound 240] | < 1 µM
CC1CCN(c2n[nH]c3nc(N4CCC5(CC4)CO[C@@H](C)[C@H]5N)cnc23)c2ccc(C(N)=O)nc21 (stereo in doubt) [Compound 265, (8R)-5-{6-[(3S,4S)-4-amino-3-methyl-2-oxa-8-azaspiro[4.5]decan-8-yl]-1H-pyrazolo[3,4-b]pyrazin-3-yl}-8-methyl-5,6,7,8-tetrahydro-1,5-naphthyridine-2-carboxamide] | < 1 µM
C[C@@H]1OCC2(CCN(c3cnc4c(N5CCCc6nc(N7CC[C@@H](O)C7)ccc65)n[nH]c4n3)CC2)[C@@H]1N [Compound 260] | < 1 µM
C[C@@H]1OCC2(CCN(c3cnc4c(N5CCCc6ncccc65)n[nH]c4n3)CC2)C1O (stereo partly drawn) [Compound 201, (3S)-8-(3-(3,4-dihydro-1,5-naphthyridin-1(2H)-yl)-1H-pyrazolo[3,4-b]pyrazin-6-yl)-3-methyl-2-oxa-8-azaspiro[4.5]decan-4-ol] | ≥ 10 µM

SMILES | IC50
CC1(CN)CCN(c2cnc3c(Sc4ccnc5[nH]ccc45)n[nH]c3n2)CC1 [Compound 515, (1-(3-((1H-pyrrolo[2,3-b]pyridin-4-yl)thio)-1H-pyrazolo[3,4-b]pyrazin-6-yl)-4-methylpiperidin-4-yl)methanamine] | < 1 µM
C/C(=N/O)c1ccc2c(n1)CCCN2c1n[nH]c2nc(N3CCC4(CC3)CO[C@@H](C)[C@H]4N)cnc12 [Compound 397, (3,4S)-8-(3-{6-[(1Z)-1-(hydroxyimino)ethyl]-1,2,3,4-tetrahydro-1,5-naphthyridin-1-yl}-1H-pyrazolo[3,4-b]pyrazin-6-yl)-3-methyl-2-oxa-8-azaspiro[4.5]decan-4-amine] | < 1 µM
C[C@@H]1OCC2(CCN(c3cnc4c(N5CCCc6c(C(=O)O)cccc65)n[nH]c4n3)CC2)[C@@H]1N [Compound 244, 1-(6-((3S,4S)-4-amino-3-methyl-2-oxa-8-azaspiro[4.5]decan-8-yl)-1H-pyrazolo[3,4-b]pyrazin-3-yl)-1,2,3,4-tetrahydroquinoline-5-carboxylic Acid] | < 1 µM
CCC1CCN(c2n[nH]c3nc(N4CCC(C)(CN)CC4)cnc23)c2ccccc21 (single isomer, unassigned) [Compound 103, hydrochloride] | < 1 µM
C[C@@H]1OCC2(CCN(c3cnc4c(N5CCCc6nc(-c7cn[nH]c7)ccc65)n[nH]c4n3)CC2)[C@@H]1N [Compound 259] | < 1 µM
C[C@@H]1CCN(c2n[nH]c3nc(N4CCC5(CC4)CO[C@@H](C)[C@H]5N)cnc23)c2ccc(-c3cnn(C)c3)nc21 [Compound 266, (3S,4S)-3-methyl-8-{3-[(4R)-4-methyl-6-(1-methyl-1H-pyrazol-4-yl)-1,2,3,4-tetrahydro-1,5-naphthyridin-1-yl]-1H-pyrazolo[3,4-b]pyrazin-6-yl}-2-oxa-8-azaspiro[4.5]decan-4-amine] | < 1 µM
CCc1cccc2c1CCCN2c1n[nH]c2nc(N3CCC(C)(CN)CC3)cnc12 [Compound 85] | < 1 µM
c1cnc2c(c1)N(c1n[nH]c3nc(N4CCCCC4)cnc13)CCC2 [Compound 155] | ≥ 10 µM
CC1(N)CCN(c2cnc3c(Nc4cccnc4Cl)n[nH]c3n2)CC1 [Compound 12, 6-(4-amino-4-methylpiperidin-1-yl)-N-(2-chloropyridin-3-yl)-1H-pyrazolo[3,4-b]pyrazin-3-amine] | 1 to 10 µM
NCC1(F)CCN(c2cnc3c(N4CCCc5ncccc54)n[nH]c3n2)CC1 [Compound 76] | < 1 µM
c1cncc(COC2CCN(c3cnc4c(N5CCCc6ncccc65)n[nH]c4n3)CC2)c1 [Compound 140] | ≥ 10 µM
CC1(CN)CCN(c2cnc3c(C(=O)c4ccccc4)n[nH]c3n2)CC1 [Compound 18, (6-(4-(aminomethyl)-4-methylpiperidin-1-yl)-1H-pyrazolo[3,4-b]pyrazin-3-yl)(phenyl)methanone] | 1 to 10 µM
C[C@@H]1OCC2(CCN(c3cnc4c(N5CCCc6c5ccnc6C(N)=O)n[nH]c4n3)CC2)[C@@H]1N [Compound 335, 1-{6-[(3S,4S)-4-amino-3-methyl-2-oxa-8-azaspiro[4.5]decan-8-yl]-1H-pyrazolo[3,4-b]pyrazin-3-yl}-1,2,3,4-tetrahydro-1,6-naphthyridine-5-carboxamide] | < 1 µM
CC1(CN)CCN(c2cnc3c(N4CCCc5c(C#N)cccc54)n[nH]c3n2)CC1 [Compound 87] | < 1 µM
CC(=O)N1CCCC(Sc2n[nH]c3nc(N4CCC(C)(N)CC4)cnc23)C1 (stereo not shown) [Compound 488, 1-(3-((6-(4-amino-4-methylpiperidin-1-yl)-1H-pyrazolo[3,4-b]pyrazin-3-yl)thio)piperidin-1-yl)ethan-1-one] | ≥ 10 µM
CC1(N)CCN(c2cnc3c(Sc4cccn5ccnc45)n[nH]c3n2)CC1 [Compound 496, 1-(3-(imidazo[1,2-a]pyridin-8-ylthio)-1H-pyrazolo[3,4-b]pyrazin-6-yl)-4-methylpiperidin-4-amine hydrochloride] | < 1 µM
C[C@@H]1OCC2(CCN(c3cnc4c(N5CCCc6nc(-c7ncco7)ccc65)n[nH]c4n3)CC2)[C@@H]1N [Compound 295, (3S,4S)-3-methyl-8-(3-(6-(oxazol-2-yl)-3,4-dihydro-1,5-naphthyridin-1(2H)-yl)-1H-pyrazolo[3,4-b]pyrazin-6-yl)-2-oxa-8-azaspiro[4.5]decan-4-amine] | < 1 µM
C[C@@H]1OCC2(CCN(c3cnc4c(N5CC(=O)Nc6cnccc65)n[nH]c4n3)CC2)[C@@H]1N [Compound 241] | < 1 µM
CC1c2ccccc2CCN1c1n[nH]c2nc(N3CCC(C)(CN)CC3)cnc12 (stereo not shown) [Compound 169] | < 1 µM
C[C@@H]1OCC2(CCN(c3cnc4c(N5CCCc6c5ccnc6-c5cn[nH]c5)n[nH]c4n3)CC2)[C@@H]1N [Compound 289] | < 1 µM
